Results from ChEMBL document CHEMBL3991601, “The target landscape of clinical kinase drugs” (Science, 2017).
Activity calls are given as the source filed them. Cut-off read from the data, not from the text of the source, for most assays here: actives have a measured Kd and inactives only a lower limit.

How the values were obtained:
[1] = target: cAMP-dependent protein kinase catalytic subunit gamma (Homo sapiens, UniProt P22612)
[2] = target: T1, Peroxisomal acyl-coenzyme A oxidase 3 (Homo sapiens, UniProt O15254)
T1 sequence (O15254 whole entry): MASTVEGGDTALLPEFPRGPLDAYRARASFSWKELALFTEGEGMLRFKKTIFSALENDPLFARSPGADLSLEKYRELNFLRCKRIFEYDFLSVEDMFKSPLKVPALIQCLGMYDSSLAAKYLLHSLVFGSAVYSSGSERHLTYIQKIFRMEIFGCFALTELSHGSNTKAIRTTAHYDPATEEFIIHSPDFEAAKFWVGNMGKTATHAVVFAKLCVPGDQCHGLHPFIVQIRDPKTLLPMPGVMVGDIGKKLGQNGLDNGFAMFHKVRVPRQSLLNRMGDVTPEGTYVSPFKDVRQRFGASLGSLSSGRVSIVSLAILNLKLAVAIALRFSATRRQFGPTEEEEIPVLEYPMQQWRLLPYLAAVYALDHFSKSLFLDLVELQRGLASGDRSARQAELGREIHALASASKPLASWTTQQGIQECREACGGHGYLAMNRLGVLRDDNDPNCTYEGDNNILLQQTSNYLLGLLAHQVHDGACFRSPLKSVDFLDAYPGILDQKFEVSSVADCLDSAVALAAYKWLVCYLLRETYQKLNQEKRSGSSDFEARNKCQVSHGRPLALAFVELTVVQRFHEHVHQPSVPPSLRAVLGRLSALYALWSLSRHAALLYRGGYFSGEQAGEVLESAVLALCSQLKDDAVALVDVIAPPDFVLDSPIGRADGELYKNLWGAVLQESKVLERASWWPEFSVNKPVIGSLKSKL

[3] = target: Tyrosine-protein kinase SYK (Homo sapiens, UniProt P43405)
[4] = target: Serine/threonine-protein kinase N1 (Homo sapiens, UniProt Q16512)
Serine/threonine-protein kinase N1, sequence (Q16512 whole entry): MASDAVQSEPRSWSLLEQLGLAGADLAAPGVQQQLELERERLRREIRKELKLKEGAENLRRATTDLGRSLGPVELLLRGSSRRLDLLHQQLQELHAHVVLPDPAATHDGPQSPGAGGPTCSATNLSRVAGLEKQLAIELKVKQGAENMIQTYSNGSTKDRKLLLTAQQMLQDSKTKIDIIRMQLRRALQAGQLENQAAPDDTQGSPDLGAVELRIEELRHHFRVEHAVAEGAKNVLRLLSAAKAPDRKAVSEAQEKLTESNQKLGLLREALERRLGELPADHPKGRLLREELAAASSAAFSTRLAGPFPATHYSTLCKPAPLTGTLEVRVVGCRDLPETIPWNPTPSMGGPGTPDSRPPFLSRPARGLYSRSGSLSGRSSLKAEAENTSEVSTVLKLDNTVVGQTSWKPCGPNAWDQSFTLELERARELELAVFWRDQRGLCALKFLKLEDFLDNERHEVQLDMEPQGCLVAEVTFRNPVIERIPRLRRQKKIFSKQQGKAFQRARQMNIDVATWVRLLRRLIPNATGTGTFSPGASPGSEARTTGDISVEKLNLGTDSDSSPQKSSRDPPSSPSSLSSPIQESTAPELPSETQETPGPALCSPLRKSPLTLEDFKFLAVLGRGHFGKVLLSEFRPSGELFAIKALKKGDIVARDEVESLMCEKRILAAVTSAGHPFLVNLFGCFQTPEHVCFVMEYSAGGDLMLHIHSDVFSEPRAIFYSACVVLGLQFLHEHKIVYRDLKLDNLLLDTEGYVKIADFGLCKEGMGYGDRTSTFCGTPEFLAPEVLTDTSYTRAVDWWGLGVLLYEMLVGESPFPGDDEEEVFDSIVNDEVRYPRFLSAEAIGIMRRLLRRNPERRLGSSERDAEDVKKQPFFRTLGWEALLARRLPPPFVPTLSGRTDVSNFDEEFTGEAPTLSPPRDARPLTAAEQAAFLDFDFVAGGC

[5] = target: Protein kinase C alpha type (Homo sapiens, UniProt P17252)
[6] = target: Serine/threonine-protein kinase PAK 4 (Homo sapiens, UniProt O96013)
[7] = target: Mitotic checkpoint serine/threonine-protein kinase BUB1 (Homo sapiens, UniProt O43683)
Mitotic checkpoint serine/threonine-protein kinase BUB1, sequence (O43683 whole entry): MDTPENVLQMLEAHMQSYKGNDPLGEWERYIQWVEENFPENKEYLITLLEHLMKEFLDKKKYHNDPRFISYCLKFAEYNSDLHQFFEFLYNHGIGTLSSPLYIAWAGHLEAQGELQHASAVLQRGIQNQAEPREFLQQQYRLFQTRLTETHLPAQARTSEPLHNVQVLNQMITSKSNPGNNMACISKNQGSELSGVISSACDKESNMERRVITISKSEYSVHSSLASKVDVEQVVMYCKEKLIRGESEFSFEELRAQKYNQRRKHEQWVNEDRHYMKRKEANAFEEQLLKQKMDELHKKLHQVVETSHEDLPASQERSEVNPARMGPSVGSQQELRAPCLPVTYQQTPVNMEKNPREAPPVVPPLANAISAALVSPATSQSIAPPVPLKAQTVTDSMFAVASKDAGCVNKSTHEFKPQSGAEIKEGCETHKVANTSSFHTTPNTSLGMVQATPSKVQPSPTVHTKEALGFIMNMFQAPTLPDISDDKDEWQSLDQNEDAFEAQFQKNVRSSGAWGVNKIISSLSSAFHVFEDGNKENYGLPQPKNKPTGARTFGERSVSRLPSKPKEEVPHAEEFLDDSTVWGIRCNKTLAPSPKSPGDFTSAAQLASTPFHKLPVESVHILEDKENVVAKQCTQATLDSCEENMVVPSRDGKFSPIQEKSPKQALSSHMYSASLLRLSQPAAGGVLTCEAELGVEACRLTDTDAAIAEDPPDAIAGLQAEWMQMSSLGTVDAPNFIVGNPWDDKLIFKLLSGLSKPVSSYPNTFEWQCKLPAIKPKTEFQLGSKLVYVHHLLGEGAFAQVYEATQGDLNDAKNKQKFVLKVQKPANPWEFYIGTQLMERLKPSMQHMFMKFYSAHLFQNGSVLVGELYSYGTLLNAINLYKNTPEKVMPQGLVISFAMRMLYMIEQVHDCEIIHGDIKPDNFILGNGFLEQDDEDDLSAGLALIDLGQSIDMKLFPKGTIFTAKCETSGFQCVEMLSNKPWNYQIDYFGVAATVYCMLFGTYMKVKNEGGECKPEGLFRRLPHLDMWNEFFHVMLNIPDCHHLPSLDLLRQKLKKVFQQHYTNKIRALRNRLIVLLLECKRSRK

[8] = target: T2, Probable ATP-dependent RNA helicase DDX6 (Homo sapiens, UniProt P26196)
T2 sequence (P26196 whole entry): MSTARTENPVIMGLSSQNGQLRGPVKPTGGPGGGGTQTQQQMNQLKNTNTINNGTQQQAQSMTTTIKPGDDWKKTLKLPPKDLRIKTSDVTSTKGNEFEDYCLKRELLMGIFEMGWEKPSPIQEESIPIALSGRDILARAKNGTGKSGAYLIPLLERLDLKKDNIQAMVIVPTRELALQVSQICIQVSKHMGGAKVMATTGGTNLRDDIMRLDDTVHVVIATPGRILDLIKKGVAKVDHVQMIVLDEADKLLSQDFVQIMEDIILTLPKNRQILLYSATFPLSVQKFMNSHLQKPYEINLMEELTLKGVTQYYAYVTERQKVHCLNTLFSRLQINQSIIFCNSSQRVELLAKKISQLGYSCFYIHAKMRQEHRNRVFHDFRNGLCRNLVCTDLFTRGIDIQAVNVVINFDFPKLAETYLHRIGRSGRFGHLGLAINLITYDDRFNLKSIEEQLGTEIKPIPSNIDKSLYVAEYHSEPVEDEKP

[9] = target: Elongation factor Tu, mitochondrial (Homo sapiens, UniProt P49411)
[10] = target: Insulin-like growth factor 1 receptor (Homo sapiens, UniProt P08069)
Insulin-like growth factor 1 receptor, sequence (P08069 31-736 limits assumed): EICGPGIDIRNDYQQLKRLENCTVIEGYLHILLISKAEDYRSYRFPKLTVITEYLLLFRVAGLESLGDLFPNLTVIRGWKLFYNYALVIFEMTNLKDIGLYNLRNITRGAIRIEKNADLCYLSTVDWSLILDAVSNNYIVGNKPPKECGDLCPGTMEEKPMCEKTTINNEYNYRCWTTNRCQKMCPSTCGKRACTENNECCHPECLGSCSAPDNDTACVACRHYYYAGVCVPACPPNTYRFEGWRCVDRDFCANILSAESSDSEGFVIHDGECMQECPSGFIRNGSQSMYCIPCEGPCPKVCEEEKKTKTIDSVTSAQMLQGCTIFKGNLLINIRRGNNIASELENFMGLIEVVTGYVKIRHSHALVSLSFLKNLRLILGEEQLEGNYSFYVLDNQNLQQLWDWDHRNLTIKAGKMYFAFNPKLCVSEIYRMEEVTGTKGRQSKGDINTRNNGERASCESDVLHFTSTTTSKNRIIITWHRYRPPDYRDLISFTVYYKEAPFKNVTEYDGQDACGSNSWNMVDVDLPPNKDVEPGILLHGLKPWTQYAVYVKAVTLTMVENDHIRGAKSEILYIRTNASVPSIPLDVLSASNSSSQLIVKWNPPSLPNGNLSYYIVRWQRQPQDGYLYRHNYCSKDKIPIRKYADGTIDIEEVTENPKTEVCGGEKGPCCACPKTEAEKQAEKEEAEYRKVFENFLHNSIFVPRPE
Insulin-like growth factor 1 receptor, sequence (P08069 741-1367 limits assumed): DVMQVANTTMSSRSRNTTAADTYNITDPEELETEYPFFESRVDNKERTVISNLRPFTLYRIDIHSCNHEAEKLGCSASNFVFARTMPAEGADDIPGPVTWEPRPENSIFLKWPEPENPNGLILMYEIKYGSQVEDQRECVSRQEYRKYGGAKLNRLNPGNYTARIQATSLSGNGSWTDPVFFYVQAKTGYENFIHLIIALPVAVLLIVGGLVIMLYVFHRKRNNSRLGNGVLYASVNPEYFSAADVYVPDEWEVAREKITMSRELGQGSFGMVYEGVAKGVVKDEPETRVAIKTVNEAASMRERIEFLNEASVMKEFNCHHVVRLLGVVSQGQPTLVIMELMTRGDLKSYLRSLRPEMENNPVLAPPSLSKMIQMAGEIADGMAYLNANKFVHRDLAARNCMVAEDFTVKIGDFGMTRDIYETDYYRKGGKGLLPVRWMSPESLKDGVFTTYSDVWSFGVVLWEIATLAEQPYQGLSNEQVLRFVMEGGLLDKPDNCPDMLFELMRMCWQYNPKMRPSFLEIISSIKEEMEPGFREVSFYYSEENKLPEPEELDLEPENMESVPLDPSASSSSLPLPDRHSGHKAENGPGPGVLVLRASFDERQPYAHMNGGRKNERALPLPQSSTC

LIM domain kinase 1 = LIM domain kinase 1 (Homo sapiens, UniProt P53667)
LIM domain kinase 1, sequence (P53667 whole entry, the tested form may be a part): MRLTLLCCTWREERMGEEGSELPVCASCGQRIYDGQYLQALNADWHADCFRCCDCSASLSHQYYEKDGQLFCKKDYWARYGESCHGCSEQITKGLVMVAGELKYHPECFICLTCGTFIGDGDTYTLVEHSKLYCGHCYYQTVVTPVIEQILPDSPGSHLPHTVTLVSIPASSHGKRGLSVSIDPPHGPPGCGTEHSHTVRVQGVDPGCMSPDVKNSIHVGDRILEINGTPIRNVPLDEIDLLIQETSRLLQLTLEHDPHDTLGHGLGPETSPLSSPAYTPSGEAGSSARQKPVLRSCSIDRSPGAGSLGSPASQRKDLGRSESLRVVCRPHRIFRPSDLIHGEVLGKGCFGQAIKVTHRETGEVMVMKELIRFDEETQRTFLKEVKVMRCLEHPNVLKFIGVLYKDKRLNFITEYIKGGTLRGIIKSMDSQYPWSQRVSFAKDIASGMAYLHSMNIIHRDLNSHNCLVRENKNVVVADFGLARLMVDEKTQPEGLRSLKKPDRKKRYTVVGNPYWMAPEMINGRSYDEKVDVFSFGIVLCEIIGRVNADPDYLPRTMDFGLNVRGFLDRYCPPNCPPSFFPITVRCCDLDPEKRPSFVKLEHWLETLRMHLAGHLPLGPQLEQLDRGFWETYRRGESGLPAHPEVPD

[11] = target: T3, Serine/threonine-protein kinase TAO3 (Homo sapiens, UniProt Q9H2K8)
T3 sequence (Q9H2K8 whole entry): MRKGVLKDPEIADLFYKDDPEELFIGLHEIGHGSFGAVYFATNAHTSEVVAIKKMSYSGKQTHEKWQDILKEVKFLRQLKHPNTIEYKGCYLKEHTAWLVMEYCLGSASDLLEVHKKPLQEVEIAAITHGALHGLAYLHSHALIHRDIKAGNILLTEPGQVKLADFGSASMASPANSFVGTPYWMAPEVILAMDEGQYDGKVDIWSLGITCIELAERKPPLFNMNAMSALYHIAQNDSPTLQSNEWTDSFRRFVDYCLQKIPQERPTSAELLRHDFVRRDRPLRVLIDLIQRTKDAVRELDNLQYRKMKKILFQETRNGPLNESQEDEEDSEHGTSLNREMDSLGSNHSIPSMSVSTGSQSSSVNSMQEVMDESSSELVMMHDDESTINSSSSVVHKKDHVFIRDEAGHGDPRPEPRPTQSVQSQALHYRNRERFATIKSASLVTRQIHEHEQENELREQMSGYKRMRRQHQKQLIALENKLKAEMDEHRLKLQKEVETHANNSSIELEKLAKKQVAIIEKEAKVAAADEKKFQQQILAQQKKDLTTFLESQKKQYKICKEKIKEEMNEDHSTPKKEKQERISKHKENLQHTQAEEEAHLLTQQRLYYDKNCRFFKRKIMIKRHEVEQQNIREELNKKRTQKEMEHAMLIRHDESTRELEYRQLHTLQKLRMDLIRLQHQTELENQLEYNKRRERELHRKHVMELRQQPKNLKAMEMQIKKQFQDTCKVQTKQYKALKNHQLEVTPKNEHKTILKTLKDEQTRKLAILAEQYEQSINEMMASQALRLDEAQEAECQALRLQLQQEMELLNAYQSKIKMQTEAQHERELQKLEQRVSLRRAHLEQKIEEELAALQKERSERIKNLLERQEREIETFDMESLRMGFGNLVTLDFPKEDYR
Note: in the data inactive means no Kd found up to 30 µM.

cAMP-dependent protein kinase catalytic subunit gamma, sequence (P22612 whole entry): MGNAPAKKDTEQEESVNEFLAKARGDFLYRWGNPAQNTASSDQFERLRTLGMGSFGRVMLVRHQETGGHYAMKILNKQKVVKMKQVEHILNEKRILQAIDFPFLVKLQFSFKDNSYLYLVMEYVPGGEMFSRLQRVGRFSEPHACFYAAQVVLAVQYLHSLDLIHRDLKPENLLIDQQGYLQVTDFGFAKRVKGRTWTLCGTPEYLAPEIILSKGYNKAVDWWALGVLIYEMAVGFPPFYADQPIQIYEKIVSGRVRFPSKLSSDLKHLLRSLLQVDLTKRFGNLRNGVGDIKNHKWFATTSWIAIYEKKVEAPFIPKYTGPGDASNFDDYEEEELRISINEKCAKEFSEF

Row | SMILES | Kd [1] | Kd [2] | Kd [3] | Kd [4] | Kd [5] | Kd [6] | Kd [7] | Kd [8] | Kd [9] | Kd [10] | Kd (LIM domain kinase 1) | Kd [11]
1 | CC(=O)Nc1cccc(-n2c(=O)n(C3CC3)c(=O)c3c(Nc4ccc(I)cc4F)n(C)c(=O)c(C)c32)c1 [TRAMETINIB] | > 30 µM (inactive) | > 30 µM (inactive) | > 30 µM (inactive) | > 30 µM (inactive) | > 30 µM (inactive) | > 30 µM (inactive) | > 30 µM (inactive) | > 30 µM (inactive) | > 30 µM (inactive) | > 30 µM (inactive) | > 30 µM (inactive) | > 30 µM (inactive)
2 | CN1CC[C@@H](c2c(O)cc(O)c3c(=O)cc(-c4ccccc4Cl)oc23)[C@@H]1CO | > 30 µM (inactive) | > 30 µM (inactive) | > 30 µM (inactive) | > 30 µM (inactive) | > 30 µM (inactive) | > 30 µM (inactive) | > 30 µM (inactive) | > 30 µM (inactive) | > 30 µM (inactive) | > 30 µM (inactive) | > 30 µM (inactive) | > 30 µM (inactive)
3 | O=c1sn(-c2cccc3ccccc23)c(=O)n1Cc1ccccc1 [TIDEGLUSIB] | > 30 µM (inactive) | > 30 µM (inactive) | > 30 µM (inactive) | > 30 µM (inactive) | > 30 µM (inactive) | > 30 µM (inactive) | > 30 µM (inactive) | > 30 µM (inactive) | > 30 µM (inactive) | > 30 µM (inactive) | > 30 µM (inactive) | > 30 µM (inactive)
4 | COc1cc(OC)c(/C=C/S(=O)(=O)Cc2ccc(OC)c(NCC(=O)O)c2)c(OC)c1 [RIGOSERTIB] | > 30 µM (inactive) | > 30 µM (inactive) | > 30 µM (inactive) | > 30 µM (inactive) | > 30 µM (inactive) | > 30 µM (inactive) | > 30 µM (inactive) | > 30 µM (inactive) | > 30 µM (inactive) | > 30 µM (inactive) | > 30 µM (inactive) | > 30 µM (inactive)
5 | CN(C)C(=O)c1cc2cnc(Nc3ccc(N4CCNCC4)cn3)nc2n1C1CCCC1 [RIBOCICLIB] | > 30 µM (inactive) | > 30 µM (inactive) | > 30 µM (inactive) | > 30 µM (inactive) | > 30 µM (inactive) | > 30 µM (inactive) | > 30 µM (inactive) | > 30 µM (inactive) | > 30 µM (inactive) | > 30 µM (inactive) | > 30 µM (inactive) | > 30 µM (inactive)
6 | CC[C@H](Nc1ncnc2[nH]cnc12)c1nc2cccc(F)c2c(=O)n1-c1ccccc1 [IDELALISIB] | > 30 µM (inactive) | > 30 µM (inactive) | > 30 µM (inactive) | > 30 µM (inactive) | > 30 µM (inactive) | > 30 µM (inactive) | > 30 µM (inactive) | > 30 µM (inactive) | > 30 µM (inactive) | > 30 µM (inactive) | > 30 µM (inactive) | > 30 µM (inactive)
7 | COC(=O)N[C@@H](C)CNc1nccc(-c2cn(C(C)C)nc2-c2cc(Cl)cc(NS(C)(=O)=O)c2F)n1 [ENCORAFENIB] | > 30 µM (inactive) | > 30 µM (inactive) | > 30 µM (inactive) | > 30 µM (inactive) | > 30 µM (inactive) | > 30 µM (inactive) | > 30 µM (inactive) | > 30 µM (inactive) | > 30 µM (inactive) | > 30 µM (inactive) | 0.026 µM (active) | 3.32 µM (active)
8 | C1=C/COCc2cc(ccc2OCCN2CCCC2)Nc2nccc(n2)-c2cccc(c2)COC/1 [PACRITINIB] | > 30 µM (inactive) | > 30 µM (inactive) | > 30 µM (inactive) | > 30 µM (inactive) | 0.934 µM (active) | > 30 µM (inactive) | > 30 µM (inactive) | > 30 µM (inactive) | > 30 µM (inactive) | > 30 µM (inactive) | > 30 µM (inactive) | > 30 µM (inactive)
9 | N[C@@H]1CCCN(c2c(/C=C3\SC(=O)NC3=O)cccc2-c2ccccc2)C1 | > 30 µM (inactive) | > 30 µM (inactive) | > 30 µM (inactive) | > 30 µM (inactive) | > 30 µM (inactive) | > 30 µM (inactive) | > 30 µM (inactive) | > 30 µM (inactive) | > 30 µM (inactive) | > 30 µM (inactive) | > 30 µM (inactive) | > 30 µM (inactive)

Now from value to compound:

Row | Kd [1] | Kd [2] | Kd [3] | Kd [4] | Kd [5] | Kd [6] | Kd [7] | Kd [8] | Kd [9] | Kd [10] | Kd (LIM domain kinase 1) | Kd [11] | SMILES
10 | > 30 µM (inactive) | > 30 µM (inactive) | > 30 µM (inactive) | > 30 µM (inactive) | > 30 µM (inactive) | > 30 µM (inactive) | > 30 µM (inactive) | > 30 µM (inactive) | > 30 µM (inactive) | > 30 µM (inactive) | 0.632 µM (active) | > 30 µM (inactive) | CCN1CCN(Cc2ccc(-c3cc4c(N[C@H](C)c5ccccc5)ncnc4[nH]3)cc2)CC1 [AEE-788]
11 | > 30 µM (inactive) | > 30 µM (inactive) | > 30 µM (inactive) | > 30 µM (inactive) | > 30 µM (inactive) | > 30 µM (inactive) | > 30 µM (inactive) | > 30 µM (inactive) | > 30 µM (inactive) | > 30 µM (inactive) | > 30 µM (inactive) | > 30 µM (inactive) | O=C1NC(=O)/C(=C/c2ccc3nccc(-c4ccncc4)c3c2)S1 [GSK-1059615]
12 | > 30 µM (inactive) | > 30 µM (inactive) | > 30 µM (inactive) | 35.4 µM (active) | > 30 µM (inactive) | > 30 µM (inactive) | > 30 µM (inactive) | > 30 µM (inactive) | > 30 µM (inactive) | > 30 µM (inactive) | > 30 µM (inactive) | > 30 µM (inactive) | CN1CCC(CNc2ccc3ncc(-c4cccc(OC(F)(F)F)c4)n3n2)CC1 [SGI-1776]
13 | > 30 µM (inactive) | > 30 µM (inactive) | > 30 µM (inactive) | > 30 µM (inactive) | > 30 µM (inactive) | > 30 µM (inactive) | > 30 µM (inactive) | > 30 µM (inactive) | > 30 µM (inactive) | > 30 µM (inactive) | > 30 µM (inactive) | > 30 µM (inactive) | Cn1cc(-c2ccc3nnc(C(F)(F)c4ccc5ncccc5c4)n3n2)cn1 [JNJ-38877605]
